The target in the assay is T1, recombinant human NaV1.8 stably transfected HEK cells (Homo sapiens, UniProt Q9Y5Y9).
T1 construct: expressed in transfected cells; host or cells: HEK cells, stably transfected
Nature of the assay: Compound profiling on NaV1.8, human NaV1.8 cell line, SyncroPatch384PE automated patch clamp assay (Example 102, first set of compounds, Table 16). Conditions: human NaV1.8 HEK cells, Table 16 (first set of compounds). It is filed as cell-based. The method, boiled down:
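IC50s come from two read-outs: resting-state block (P1, 10 mV step from −120 mV) and inactivated-state block (P2, after 10 s at −40 mV), scaled between DMSO and 250 μM tetracaine. Compounds (20–0.001 μM final, 1:3 steps) were applied for 5 min, 15 s sweeps. Cells kept at 30 °C the day before.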

The mark [1] stands for this setting: inactivated state block (P2 measurement), read-out: P2IC50.
Where [2] appears, read: resting state block (P1 measurement), read-out: P1IC50.

SMILES strings stand for the structures. Like-named read-outs stand apart in the source and are kept apart here.

T1 sequence (Q9Y5Y9 whole entry): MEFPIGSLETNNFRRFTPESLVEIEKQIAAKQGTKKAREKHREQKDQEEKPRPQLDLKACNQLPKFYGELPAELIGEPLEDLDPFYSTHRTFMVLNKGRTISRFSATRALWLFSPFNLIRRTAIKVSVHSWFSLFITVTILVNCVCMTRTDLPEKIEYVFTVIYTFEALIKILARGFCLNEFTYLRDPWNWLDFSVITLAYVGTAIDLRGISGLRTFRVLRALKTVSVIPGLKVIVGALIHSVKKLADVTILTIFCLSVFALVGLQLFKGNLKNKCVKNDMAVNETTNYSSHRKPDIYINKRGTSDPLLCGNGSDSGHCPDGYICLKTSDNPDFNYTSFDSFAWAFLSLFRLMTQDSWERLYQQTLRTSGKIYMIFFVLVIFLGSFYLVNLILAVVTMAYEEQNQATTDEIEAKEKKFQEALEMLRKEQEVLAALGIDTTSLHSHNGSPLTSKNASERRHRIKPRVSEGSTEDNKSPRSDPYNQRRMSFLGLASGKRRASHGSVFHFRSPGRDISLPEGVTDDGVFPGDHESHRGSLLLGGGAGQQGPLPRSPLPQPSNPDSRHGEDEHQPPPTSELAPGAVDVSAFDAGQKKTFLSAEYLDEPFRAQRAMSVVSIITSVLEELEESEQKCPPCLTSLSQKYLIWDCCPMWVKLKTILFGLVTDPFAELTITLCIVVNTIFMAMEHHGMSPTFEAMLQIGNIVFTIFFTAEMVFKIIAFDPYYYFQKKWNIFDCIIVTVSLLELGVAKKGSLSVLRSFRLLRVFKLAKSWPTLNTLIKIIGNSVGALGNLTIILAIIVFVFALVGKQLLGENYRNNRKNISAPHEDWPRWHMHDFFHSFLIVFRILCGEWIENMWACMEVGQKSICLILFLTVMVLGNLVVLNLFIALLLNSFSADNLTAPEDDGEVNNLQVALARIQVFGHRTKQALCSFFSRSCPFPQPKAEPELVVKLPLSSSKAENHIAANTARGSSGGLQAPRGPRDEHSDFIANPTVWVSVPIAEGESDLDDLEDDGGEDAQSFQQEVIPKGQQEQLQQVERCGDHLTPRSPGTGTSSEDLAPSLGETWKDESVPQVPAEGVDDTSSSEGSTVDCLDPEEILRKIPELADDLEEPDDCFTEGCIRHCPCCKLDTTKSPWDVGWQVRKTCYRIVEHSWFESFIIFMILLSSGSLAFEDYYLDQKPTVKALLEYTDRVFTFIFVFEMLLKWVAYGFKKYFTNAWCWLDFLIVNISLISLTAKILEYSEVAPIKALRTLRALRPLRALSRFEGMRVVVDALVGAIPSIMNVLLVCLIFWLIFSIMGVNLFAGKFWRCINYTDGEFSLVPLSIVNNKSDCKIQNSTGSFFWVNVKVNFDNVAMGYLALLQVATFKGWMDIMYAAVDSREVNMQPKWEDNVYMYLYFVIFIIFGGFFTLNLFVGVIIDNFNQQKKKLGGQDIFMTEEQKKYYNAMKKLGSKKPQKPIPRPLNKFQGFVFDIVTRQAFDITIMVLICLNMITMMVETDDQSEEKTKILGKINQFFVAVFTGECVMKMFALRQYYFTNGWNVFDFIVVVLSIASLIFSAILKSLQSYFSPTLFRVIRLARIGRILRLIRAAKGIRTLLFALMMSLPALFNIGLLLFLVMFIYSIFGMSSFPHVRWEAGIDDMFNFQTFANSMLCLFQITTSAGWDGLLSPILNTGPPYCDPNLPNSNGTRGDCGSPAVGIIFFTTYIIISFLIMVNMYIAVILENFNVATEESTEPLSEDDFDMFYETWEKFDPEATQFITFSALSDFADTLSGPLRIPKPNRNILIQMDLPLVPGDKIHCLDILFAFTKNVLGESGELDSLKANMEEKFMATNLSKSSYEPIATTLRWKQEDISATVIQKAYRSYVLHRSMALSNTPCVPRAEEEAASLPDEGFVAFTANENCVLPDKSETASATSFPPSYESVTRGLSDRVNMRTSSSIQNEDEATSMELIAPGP

For the molecule `Cc1c(C#N)ccc(Oc2ncc(C(F)(F)F)cc2C(=O)Nc2cccc(C(N)=O)c2)c1F` [Compound 1697], the IC50 under setting [1] is 20 to 40 nM and the IC50 under setting [2] is 20 to 40 nM.
Consider `Cc1c(Oc2nnc(C(F)(F)F)c(C)c2C(=O)Nc2cccc(S(C)(=N)=O)c2)ccc(Cl)c1F` (stereo not drawn) [Compound 1486, 3-(4-chloro-3-fluoro-2-methyl-phenoxy)-5-methyl-N-[3-(methylsulfonimidoyl)phenyl]-6-(trifluoromethyl)pyridazine-4-carboxamide], for which the IC50 under setting [1] is at most 20 nM and the IC50 under setting [2] was at most 20 nM.
As to `Cc1cc(Br)ccc1Oc1nnc(C(F)(F)F)c(C)c1C(=O)Nc1ccc(C(N)=O)cc1` [Compound 1402], the IC50 is 20 to 40 nM under setting [1] and 20 to 40 nM under setting [2].
As for `Cc1c(C(F)(F)F)nnc(Oc2ccc(OC(C)C)c(F)c2F)c1C(=O)Nc1cccc(S(C)(=O)=O)c1` [Compound 1424], the IC50 runs as follows: under setting [1], at most 20 nM; under setting [2], at most 20 nM.
With `COc1cc(C#N)ccc1Oc1nnc(-c2ccc(C)nc2)c(C)c1C(=O)Nc1cccc(S(C)(=N)=O)c1` (stereo not drawn) [Compound 1455, 3-(4-cyano-2-methoxy-phenoxy)-5-methyl-6-(6-methyl-3-pyridyl)-N-[3-(methylsulfonimidoyl)phenyl]pyridazine-4-carboxamide], the IC50 is 200 to 500 nM under setting [1] and 200 to 500 nM under setting [2].
On to `COc1cc(C#N)ccc1Oc1nnc(C(F)(F)F)c(C)c1C(=O)Nc1cnc(C(N)=O)s1` [Compound 1538, 5-[[3-(4-cyano-2-methoxy-phenoxy)-5-methyl-6-(trifluoromethyl)pyridazine-4-carbonyl]amino]thiazole-2-carboxamide], for which the IC50 lay within 40 to 200 nM under setting [1] and 40 to 200 nM under setting [2].
For the molecule `COc1cc(C#N)ccc1Oc1nnc(C(F)(F)F)c(C)c1C(=O)Nc1cccc(C(=O)NS(C)(=O)=O)c1` [Compound 1542, 3-(4-cyano-2-methoxy-phenoxy)-5-methyl-N-[3-(methylsulfonylcarbamoyl)phenyl]-6-(trifluoromethyl)pyridazine-4-carboxamide], the IC50 under setting [1] was 200 to 500 nM and the IC50 under setting [2] was in the range of 200 to 500 nM.
`Cc1cc(F)ccc1Oc1nnc(C(C)O)c(C)c1C(=O)Nc1cccc(S(C)(=N)=O)c1` (stereo not drawn) [Compound 1547, 3-(4-fluoro-2-methyl-phenoxy)-6-(1-hydroxyethyl)-5-methyl-N-[3-(methylsulfonimidoyl)phenyl]pyridazine-4-carboxamide]: the IC50 lay in the range of 200 to 500 nM under setting [1] and 200 to 500 nM under setting [2].
On to `COc1cc(C#N)ccc1Oc1ncc(C2CCOCC2)cc1C(=O)Nc1cccc(S(C)(=N)=O)c1` (stereo not drawn) [Compound 1727, 2-(4-cyano-2-methoxy-phenoxy)-N-[3-(methylsulfonimidoyl)phenyl]-5-tetrahydropyran-4-yl-pyridine-3-carboxamide], for which the IC50 reads like this: under setting [1], 200 to 500 nM; under setting [2], 200 to 500 nM.
In the case of `COc1nc(Br)ccc1Oc1ncc(C(F)(F)F)cc1C(=O)Nc1cccc(S(C)(=O)=O)c1` [Compound 1603], the IC50 by setting is: under setting [1], at most 20 nM; under setting [2], at most 20 nM.
Regarding `COC(=O)C12CC(NC(=O)c3cc(C(F)(F)F)cnc3Oc3ccc(C#N)cc3OC)(C1)C2` [Compound 1678], the IC50 is, setting by setting: under setting [1], 200 to 500 nM; under setting [2], 200 to 500 nM.
Turning to `NC(=O)c1cccc(NC(=O)c2cc(C(F)(F)F)cnc2Oc2ccc(C(F)F)nc2)c1` [Compound 1675], the IC50 lay in the range of 200 to 500 nM under setting [1] and 200 to 500 nM under setting [2].
Consider `CS(=O)(=O)c1cccc(NC(=O)c2cc(C(F)(F)F)cnc2OCC(F)F)c1` [Compound 1663], for which the IC50 reads like this: under setting [1], 200 to 500 nM; under setting [2], 200 to 500 nM.
Turning to `NC(=O)c1ccc(NC(=O)c2cc(C(F)(F)F)cnc2OC2CC3C(C2)C3(F)F)cc1` (stereo not drawn) [Compound 1673], the IC50 by setting is: under setting [1], 200 to 500 nM; under setting [2], 200 to 500 nM.
As to `COc1c(Oc2ncc(C(F)(F)F)cc2C(=O)Nc2cccc(S(C)(=N)=O)c2)ccc(F)c1Cl` (stereo not drawn) [Compound 1618], the IC50 reads like this: under setting [1], at most 20 nM; under setting [2], at most 20 nM.

The values above are taken from US20240336574A1 (LATIGO BIOTHERAPEUTICS, INC., priority 2021, published 2024).
